Experimental data from US7259293B2, “Expression of eukaryotic peptides in plant plastids” (priority 1998, dated 2007).

Legend:
Nb2 cell line = assay: Nb2 cell proliferation bioactivity assay; format: cell-based, rat; settings: 48 hrs incubation, MTS absorbance
Experimental: Bioactivity of the pH adjusted and centrifuged extract was tested using cells from an Nb2 cell line. These cells proliferate in the presence of growth hormone and other […] type compounds. The assay involves putting various concentrations of growth hormone-containing extract into a 96 well plate. Then a constant amount of cells are added to each well. The plate is incubated for 48 hrs and then a reagent called MTS is added. Metabolizing cells take up the MTS and convert it to a blue colored substance. The more cells there are the more blue color in the well. The blue color is measured using a spectrophotometer. The number of cells should be proportional to the concentration of growth hormone in the media. At some high concentration one expects that the cells will become saturated with growth hormone and that the dose response will level off. At very low hGH concentrations essentially no enhanced growth is seen.
To test this hypothesis in vitro, a rat lymphoma cell line, Nb2, that proliferates in the presence of somatotropin (hGH) and other […] type compounds was employed. Proliferation of this cell line is proportional to the amount of somatotropin in the culture medium, until saturation is reached. The ion exchange column eluate from transplastomic Nt-4838 and Nt-38794 plants or identically treated wild-type plants was added to the Nb2 cell culture medium. As control, E. coli produced, refolded hGH was used.

[1] = test system: homoplasmic tobacco plants of the line 38773-6; assay: Whole plant glyphosate spray tolerance, line 38773-6; format: in vivo
Experimental: Homoplasmic tobacco plants of the line 38773-6 are sprayed with glyphosate using a track sprayer at concentrations corresponding to 0 oz/acre, 16 oz/acre, 32 oz/acre and 64 oz/acre to test for whole plant tolerance. Plant height was measured before and after spraying with glyphosate. The vegetative injury data was collected two weeks after spraying, while the reproductive injury data was collected at plant maturity.
Tolerance is characterized by the continued growth and greening of tissues sprayed with glyphosate. However, as the concentration of glyphosate applied increased, there was a corresponding increase in the level of vegetative injury.

[2] = test system: homoplasmic tobacco line 38773-6; assay: In vitro glyphosate tolerance, shoot regeneration from leaf explants, line 38773-6; format: cell-based; settings: tobacco plants expressing EPSPS in plastids (pMON38773)
Experimental: A transplastomic tobacco line homoplasmic for the construct pMON38773 was tested in vitro to determine the highest level of glyphosate tolerance. Explant tissue was prepared from leaf pieces of nontransgenic wild type tobacco control, Havanna, plants and the homoplasmic tobacco line 38773-6 and cultured for regeneration of shoots on TSO medium (described above) supplemented with glyphosate levels of 50 μM, 75 μM, 100 μM, 150 μM and 200 μM. The number of explants producing shoots was determined at 3 weeks and 6 weeks after explant preparation and culturing on glyphosate containing medium.

[3] = test system: Wild type tobacco (nontransformed control plants); assay: Whole plant glyphosate spray tolerance, wild type; format: in vivo; settings: concentrations as low as 16 oz/Acre
[4] = in vivo; cited from earlier work

Compound: chloroplast derived hGH: human growth hormone expressed in tobacco plastids
- proliferation of the Nb2 cell line (bioactivity) (Nb2 cell line): biologically active
- proliferation of the Nb2 cell line (bioactivity) (Nb2 cell line; listed as hGH expressed from a plant plastid): sigmoidal shape when graphed as absorbance versus hGH concentration

Compound: alanine-hST: hGH with alanine N-terminus, from Nt4838 extracts, methionine removed by aminopeptidase
- proliferation of the Nb2 cell line (bioactivity) (Nb2 cell line): also bioactive

Compound: O=C(O)CNCP(=O)(O)O [Glyphosate, N-phosphonomethylglycine]
- glyphosate concentration tolerated, whole plant spray ([1]; homoplasmic tobacco lines, initial results, vegetative tissue injury): 16 oz/acre
- glyphosate level tolerated, whole plant spray ([1]; subsequent experiments with additional transformed lines): 64 oz/Acre
- glyphosate level with a good level of tolerance, whole plant spray ([1]; transplastomic lines): 32 oz/Acre
- glyphosate level tolerated (shoot regeneration) [2]: at least 200 μM
- susceptibility to glyphosate spray [3]: highly susceptible

Compound: recombinant somatotropin: recombinant somatotropin produced in E. coli, N-terminal methionine or phenylalanine (Moore et al. 1988)
- pharmacokinetics [4]: equivalent pharmacokinetics
